PubChem BioAssay AID1963976 (Molecular Pharmacology Branch, DTP, NCI, 2024)

Test system: 435261-313-R-J1-PDC tumor spheroid viability
Assay: Anticancer human tumor 435261-313-R-J1-PDC patient-derived colon adenocarcinoma cell line growth inhibition [PI3K]
Conditions: spheroids with HUVEC and MSC; for IC50: curve of first compound; for viability, T/C: stronger effect = lower value
Summary of the method: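 High-throughput combination screen: PI3K inhibitors crossed with targeted small molecules on complex spheroids of tumor cells, HUVEC and MSCs at 37 degrees C, 5% CO2. Top concentration was at or near clinical Cmax (otherwise 10 microM), with half-log decrements.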

[1] = second compound 0.00316 µM, first compound 0.0316 µM
[2] = second compound 0.00316 µM, first compound 0.1 µM
[3] = second compound 0.01 µM, first compound 0.0316 µM
[4] = second compound 0.01 µM, first compound 0.1 µM
[5] = second compound 0.0316 µM, first compound 0.0316 µM
[6] = second compound 0.0316 µM, first compound 0.1 µM
[7] = second compound 0.1 µM, first compound 0.0316 µM
[8] = second compound 0.1 µM, first compound 0.1 µM
[9] = second compound 0.316 µM, first compound 0.0316 µM
[10] = second compound 0.316 µM, first compound 0.1 µM
[11] = second compound 1 µM, first compound 0.0316 µM
[12] = second compound 1 µM, first compound 0.1 µM
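Also: spheroids exposed to compounds for 7 days.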

Cn1ncnc1[C@H]1c2n[nH]c(=O)c3cc(F)cc(c23)N[C@@H]1c1ccc(F)cc1 + COc1c(OCCCN2CCOCC2)ccc2c3n(c(=NC(=O)c4cnc(N)nc4)nc12)CCN3
IC50 (second compound 0.00316 µM): 47.7 nM | IC50 (second compound 0.01 µM): 0.895 nM | IC50 (second compound 0.0316 µM): < 0.316 nM | IC50 (second compound 0.1 µM): < 0.316 nM | IC50 (second compound 0.316 µM): < 0.316 nM | IC50 (second compound 1 µM): < 0.316 nM | viability, T/C (second compound 0.00316 µM, first compound 0.000316 µM): 87% | viability, T/C (second compound 0.00316 µM, first compound 0.001 µM): 41.6% | viability, T/C (second compound 0.00316 µM, first compound 0.00316 µM): 76% | viability, T/C (second compound 0.00316 µM, first compound 0.01 µM): 66.4% | viability, T/C [1]: 55% | viability, T/C [2]: 39% | viability, T/C (second compound 0.01 µM, first compound 0.000316 µM): 62.5% | viability, T/C (second compound 0.01 µM, first compound 0.001 µM): 51% | viability, T/C (second compound 0.01 µM, first compound 0.00316 µM): 36.7% | viability, T/C (second compound 0.01 µM, first compound 0.01 µM): 52.7% | viability, T/C [3]: 58.7% | viability, T/C [4]: 35% | viability, T/C (second compound 0.0316 µM, first compound 0.000316 µM): 24.6% | viability, T/C (second compound 0.0316 µM, first compound 0.001 µM): 23% | viability, T/C (second compound 0.0316 µM, first compound 0.00316 µM): 27.1% | viability, T/C (second compound 0.0316 µM, first compound 0.01 µM): 21.2% | viability, T/C [5]: 21.9% | viability, T/C [6]: 22.5% | viability, T/C (second compound 0.1 µM, first compound 0.000316 µM): 17.3% | viability, T/C (second compound 0.1 µM, first compound 0.001 µM): 16.6% | viability, T/C (second compound 0.1 µM, first compound 0.00316 µM): 20.1% | viability, T/C (second compound 0.1 µM, first compound 0.01 µM): 15.8% | viability, T/C [7]: 16.8% | viability, T/C [8]: 14.4% | viability, T/C (second compound 0.316 µM, first compound 0.000316 µM): 8.3% | viability, T/C (second compound 0.316 µM, first compound 0.001 µM): 7.7% | viability, T/C (second compound 0.316 µM, first compound 0.00316 µM): 6.69% | viability, T/C (second compound 0.316 µM, first compound 0.01 µM): 7.31% | viability, T/C [9]: 8.06% | viability, T/C [10]: 7.38% | viability, T/C (second compound 1 µM, first compound 0.000316 µM): 3.97% | viability, T/C (second compound 1 µM, first compound 0.001 µM): 3.84% | viability, T/C (second compound 1 µM, first compound 0.00316 µM): 3.78% | viability, T/C (second compound 1 µM, first compound 0.01 µM): 3.5% | viability, T/C [11]: 4.54% | viability, T/C [12]: 2.9%

CC1(C)CCC(CN2CCN(c3ccc(C(=O)NS(=O)(=O)c4ccc(NCC5CCOCC5)c([N+](=O)[O-])c4)c(Oc4cnc5[nH]ccc5c4)c3)CC2)=C(c2ccc(Cl)cc2)C1 + COc1c(OCCCN2CCOCC2)ccc2c3n(c(=NC(=O)c4cnc(N)nc4)nc12)CCN3
IC50 (second compound 0.00316 µM): 4970 nM | IC50 (second compound 0.01 µM): 3250 nM | IC50 (second compound 0.0316 µM): < 31.6 nM | IC50 (second compound 0.1 µM): < 31.6 nM | IC50 (second compound 0.316 µM): < 31.6 nM | IC50 (second compound 1 µM): < 31.6 nM | viability, T/C [1]: 77.8% | viability, T/C [2]: 65% | viability, T/C (second compound 0.00316 µM, first compound 0.316 µM): 59.7% | viability, T/C (second compound 0.00316 µM, first compound 1 µM): 66.4% | viability, T/C (second compound 0.00316 µM, first compound 3.16 µM): 92.9% | viability, T/C (second compound 0.00316 µM, first compound 10 µM): 15.3% | viability, T/C [3]: 45.6% | viability, T/C [4]: 41.2% | viability, T/C (second compound 0.01 µM, first compound 0.316 µM): 44% | viability, T/C (second compound 0.01 µM, first compound 1 µM): 81% | viability, T/C (second compound 0.01 µM, first compound 3.16 µM): 49.6% | viability, T/C (second compound 0.01 µM, first compound 10 µM): 10% | viability, T/C [5]: 25.2% | viability, T/C [6]: 25.9% | viability, T/C (second compound 0.0316 µM, first compound 0.316 µM): 28.5% | viability, T/C (second compound 0.0316 µM, first compound 1 µM): 22.6% | viability, T/C (second compound 0.0316 µM, first compound 3.16 µM): 33.9% | viability, T/C (second compound 0.0316 µM, first compound 10 µM): 8.36% | viability, T/C [7]: 16.8% | viability, T/C [8]: 15.3% | viability, T/C (second compound 0.1 µM, first compound 0.316 µM): 14.9% | viability, T/C (second compound 0.1 µM, first compound 1 µM): 13.9% | viability, T/C (second compound 0.1 µM, first compound 3.16 µM): 13.5% | viability, T/C (second compound 0.1 µM, first compound 10 µM): 5.88% | viability, T/C [9]: 8.12% | viability, T/C [10]: 8.36% | viability, T/C (second compound 0.316 µM, first compound 0.316 µM): 8.35% | viability, T/C (second compound 0.316 µM, first compound 1 µM): 7.93% | viability, T/C (second compound 0.316 µM, first compound 3.16 µM): 9.73% | viability, T/C (second compound 0.316 µM, first compound 10 µM): 4.39% | viability, T/C [11]: 4.19% | viability, T/C [12]: 4.08% | viability, T/C (second compound 1 µM, first compound 0.316 µM): 4.61% | viability, T/C (second compound 1 µM, first compound 1 µM): 5.2% | viability, T/C (second compound 1 µM, first compound 3.16 µM): 6.19% | viability, T/C (second compound 1 µM, first compound 10 µM): 3.8%
